Earlier results on one compound are cited in publication PMC4224523 (Molecular Pharmaceutics, 2014).

For this data set the following is noted: general statement in introduction.

As for `FC1(F)OC(F)(F)C(F)(F)OC(F)(F)C(F)(F)OC(F)(F)C(F)(F)OC(F)(F)C(F)(F)OC1(F)F` [PFCE, Perfluoro-15-crown-5-ether], the solubility in solvents result is “insoluble in most solvents”.
